Laboratory results taken from PubChem BioAssay (NCI).
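The compound was tested at five concentrations on cells cultured in 96-well plates, with a 48-hour exposure period. Here, GI50 denotes the concentration required for 50% inhibition of growth. TGI marks complete inhibition of growth.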

Key:
Assay in all cases: NCI anticancer screen, dose series, 48 h
786-0 renal = test system: 786-0 renal
A498 renal = test system: A498 renal
A549 NSCLC = test system: A549 NSCLC
ACHN renal = test system: ACHN renal
CAKI-1 renal = test system: CAKI-1 renal
CCRF-CEM leukemia = test system: CCRF-CEM leukemia
COLO 205 colon = test system: COLO 205 colon
DU-145 prostate = test system: DU-145 prostate
EKVX NSCLC = test system: EKVX NSCLC
HCC-2998 colon = test system: HCC-2998 colon
HCT-116 colon = test system: HCT-116 colon
HCT-15 colon = test system: HCT-15 colon
HL-60(TB) leukemia = test system: HL-60(TB) leukemia
HOP-62 NSCLC = test system: HOP-62 NSCLC
HOP-92 NSCLC = test system: HOP-92 NSCLC
HS 578T breast = test system: HS 578T breast
HT29 colon = test system: HT29 colon
IGROV1 ovarian = test system: IGROV1 ovarian
K-562 leukemia = test system: K-562 leukemia
KM12 colon = test system: KM12 colon
LOX IMVI melanoma = test system: LOX IMVI melanoma
M14 melanoma = test system: M14 melanoma
MALME-3M melanoma = test system: MALME-3M melanoma
MCF7 breast = test system: MCF7 breast
MDA-MB-231 breast = test system: MDA-MB-231 breast
MDA-MB-435 = test system: MDA-MB-435
MOLT-4 leukemia = test system: MOLT-4 leukemia
NCI-H23 lung = test system: NCI-H23 lung
NCI-H460 lung = test system: NCI-H460 lung
NCI-H522 lung = test system: NCI-H522 lung
NCI/ADR-RES ovarian = test system: NCI/ADR-RES ovarian
OVCAR-3 ovarian = test system: OVCAR-3 ovarian
OVCAR-4 ovarian = test system: OVCAR-4 ovarian
OVCAR-5 ovarian = test system: OVCAR-5 ovarian
OVCAR-8 ovarian = test system: OVCAR-8 ovarian
PC-3 prostate = test system: PC-3 prostate
RPMI-8226 leukemia = test system: RPMI-8226 leukemia
RXF 393 renal = test system: RXF 393 renal
SF-268 CNS = test system: SF-268 CNS
SF-295 CNS = test system: SF-295 CNS
SF-539 CNS = test system: SF-539 CNS
SK-MEL-28 melanoma = test system: SK-MEL-28 melanoma
SK-MEL-5 melanoma = test system: SK-MEL-5 melanoma
SK-OV-3 ovarian = test system: SK-OV-3 ovarian
SN12C renal = test system: SN12C renal
SNB-19 CNS = test system: SNB-19 CNS
SNB-75 CNS = test system: SNB-75 CNS
SR leukemia = test system: SR leukemia
SW-620 colon = test system: SW-620 colon
T-47D breast = test system: T-47D breast
TK-10 renal = test system: TK-10 renal
U251 CNS = test system: U251 CNS
UACC-257 melanoma = test system: UACC-257 melanoma
UACC-62 melanoma = test system: UACC-62 melanoma
UO-31 renal = test system: UO-31 renal
BT-549 breast = test system: BT-549 breast
NCI-H226 lung = test system: NCI-H226 lung
SK-MEL-2 melanoma = test system: SK-MEL-2 melanoma

Cc1nc(N)nc2c1CCC(O)S2 (configuration not stated)
GI50 (786-0 renal): 10.7 µM
TGI (786-0 renal): 24.5 µM
GI50 (A498 renal): 17.7 µM
TGI (A498 renal): 93.1 µM
GI50 (A549 NSCLC): 19.3 µM
TGI (A549 NSCLC): 78.2 µM
GI50 (ACHN renal): 22 µM
TGI (ACHN renal): > 100 µM
GI50 (CAKI-1 renal): 33.7 µM
TGI (CAKI-1 renal): > 100 µM
GI50 (CCRF-CEM leukemia): 4.29 µM
TGI (CCRF-CEM leukemia): 69.1 µM
GI50 (COLO 205 colon): 5.31 µM
TGI (COLO 205 colon): 16.7 µM
GI50 (DU-145 prostate): 3.5 µM
TGI (DU-145 prostate): 12.2 µM
GI50 (EKVX NSCLC): 24.8 µM
TGI (EKVX NSCLC): 93.2 µM
GI50 (HCC-2998 colon): 9.46 µM
TGI (HCC-2998 colon): 22.2 µM
GI50 (HCT-116 colon): 2.39 µM
TGI (HCT-116 colon): 6.04 µM
GI50 (HCT-15 colon): 26.3 µM
TGI (HCT-15 colon): > 100 µM
GI50 (HL-60(TB) leukemia): 11.4 µM
TGI (HL-60(TB) leukemia): 33 µM
GI50 (HOP-62 NSCLC): 5.44 µM
TGI (HOP-62 NSCLC): 18.5 µM
GI50 (HOP-92 NSCLC): 2.54 µM
TGI (HOP-92 NSCLC): 12.3 µM
GI50 (HS 578T breast): 10.7 µM
TGI (HS 578T breast): > 100 µM
GI50 (HT29 colon): 4.24 µM
TGI (HT29 colon): 17.3 µM
GI50 (IGROV1 ovarian): 4.67 µM
TGI (IGROV1 ovarian): 17.9 µM
GI50 (K-562 leukemia): 5.18 µM
TGI (K-562 leukemia): > 100 µM
GI50 (KM12 colon): 5.46 µM
TGI (KM12 colon): 19.6 µM
GI50 (LOX IMVI melanoma): 10.4 µM
TGI (LOX IMVI melanoma): 24.5 µM
GI50 (M14 melanoma): 8.44 µM
TGI (M14 melanoma): 31.6 µM
GI50 (MALME-3M melanoma): 11.3 µM
TGI (MALME-3M melanoma): 39.4 µM
GI50 (MCF7 breast): 3.02 µM
TGI (MCF7 breast): 10.4 µM
GI50 (MDA-MB-231 breast): 10.2 µM
TGI (MDA-MB-231 breast): 32.8 µM
GI50 (MDA-MB-435): 4.51 µM
TGI (MDA-MB-435): 18.7 µM
GI50 (MOLT-4 leukemia): 2.91 µM
TGI (MOLT-4 leukemia): 8.36 µM
GI50 (NCI-H23 lung): 3.66 µM
TGI (NCI-H23 lung): 17.2 µM
GI50 (NCI-H460 lung): 3.86 µM
TGI (NCI-H460 lung): 15.3 µM
GI50 (NCI-H522 lung): 17 µM
TGI (NCI-H522 lung): 34 µM
GI50 (NCI/ADR-RES ovarian): > 100 µM
TGI (NCI/ADR-RES ovarian): > 100 µM
GI50 (OVCAR-3 ovarian): 2.76 µM
TGI (OVCAR-3 ovarian): 7.7 µM
GI50 (OVCAR-4 ovarian): 3.26 µM
TGI (OVCAR-4 ovarian): 14.2 µM
GI50 (OVCAR-5 ovarian): 20.7 µM
TGI (OVCAR-5 ovarian): 74.3 µM
GI50 (OVCAR-8 ovarian): 3.73 µM
TGI (OVCAR-8 ovarian): 24 µM
GI50 (PC-3 prostate): 3.52 µM
TGI (PC-3 prostate): 44.7 µM
GI50 (RPMI-8226 leukemia): 21.3 µM
TGI (RPMI-8226 leukemia): > 100 µM
GI50 (RXF 393 renal): 5.4 µM
TGI (RXF 393 renal): 27 µM
GI50 (SF-268 CNS): 4.84 µM
TGI (SF-268 CNS): 25.6 µM
GI50 (SF-295 CNS): 14.8 µM
TGI (SF-295 CNS): 44.3 µM
GI50 (SF-539 CNS): 12.3 µM
TGI (SF-539 CNS): 27.9 µM
GI50 (SK-MEL-28 melanoma): 6.11 µM
TGI (SK-MEL-28 melanoma): 28.9 µM
GI50 (SK-MEL-5 melanoma): 12.5 µM
TGI (SK-MEL-5 melanoma): 26.3 µM
GI50 (SK-OV-3 ovarian): 11.3 µM
TGI (SK-OV-3 ovarian): 25.6 µM
GI50 (SN12C renal): 7.81 µM
TGI (SN12C renal): 56.2 µM
GI50 (SNB-19 CNS): 6.43 µM
TGI (SNB-19 CNS): 41.1 µM
GI50 (SNB-75 CNS): 11.2 µM
TGI (SNB-75 CNS): 39.8 µM
GI50 (SR leukemia): 4.21 µM
TGI (SR leukemia): > 100 µM
GI50 (SW-620 colon): 3.64 µM
TGI (SW-620 colon): 14.1 µM
GI50 (T-47D breast): 5.25 µM
TGI (T-47D breast): 30.2 µM
GI50 (TK-10 renal): 32.1 µM
TGI (TK-10 renal): > 100 µM
GI50 (U251 CNS): 3.3 µM
TGI (U251 CNS): 11.5 µM
GI50 (UACC-257 melanoma): 12.9 µM
TGI (UACC-257 melanoma): 47.1 µM
GI50 (UACC-62 melanoma): 11.3 µM
TGI (UACC-62 melanoma): 25.8 µM
GI50 (UO-31 renal): 39.7 µM
TGI (UO-31 renal): > 100 µM

COc1ccc2cc(/C=C/C(=O)c3ccc(Cl)cc3Cl)ccc2c1
GI50 (786-0 renal): 36.7 µM
TGI (786-0 renal): > 100 µM
GI50 (A498 renal): 28.8 µM
TGI (A498 renal): 58.9 µM
GI50 (A549 NSCLC): 26 µM
TGI (A549 NSCLC): > 100 µM
GI50 (ACHN renal): 35.4 µM
TGI (ACHN renal): > 100 µM
GI50 (BT-549 breast): 33 µM
TGI (BT-549 breast): 96.7 µM
GI50 (CAKI-1 renal): 42.7 µM
TGI (CAKI-1 renal): 89.1 µM
GI50 (CCRF-CEM leukemia): 21 µM
TGI (CCRF-CEM leukemia): 57.2 µM
GI50 (DU-145 prostate): 32.6 µM
TGI (DU-145 prostate): > 100 µM
GI50 (EKVX NSCLC): 41.7 µM
TGI (EKVX NSCLC): > 100 µM
GI50 (HCC-2998 colon): 20.6 µM
TGI (HCC-2998 colon): 48.8 µM
GI50 (HCT-116 colon): 16.9 µM
TGI (HCT-116 colon): 46 µM
GI50 (HCT-15 colon): 31 µM
TGI (HCT-15 colon): > 100 µM
GI50 (HL-60(TB) leukemia): 17.5 µM
TGI (HL-60(TB) leukemia): 41 µM
GI50 (HOP-62 NSCLC): 39.3 µM
TGI (HOP-62 NSCLC): > 100 µM
GI50 (HOP-92 NSCLC): 97.7 µM
TGI (HOP-92 NSCLC): > 100 µM
GI50 (HS 578T breast): 39.3 µM
TGI (HS 578T breast): > 100 µM
GI50 (IGROV1 ovarian): 42.9 µM
TGI (IGROV1 ovarian): > 100 µM
GI50 (K-562 leukemia): 20.5 µM
TGI (K-562 leukemia): 68.8 µM
GI50 (KM12 colon): 29 µM
TGI (KM12 colon): 85.4 µM
GI50 (LOX IMVI melanoma): 24.1 µM
TGI (LOX IMVI melanoma): 60.4 µM
GI50 (M14 melanoma): 30.5 µM
TGI (M14 melanoma): > 100 µM
GI50 (MALME-3M melanoma): 27 µM
TGI (MALME-3M melanoma): 73.9 µM
GI50 (MCF7 breast): 4.83 µM
TGI (MCF7 breast): 43.4 µM
GI50 (MDA-MB-231 breast): 27.3 µM
TGI (MDA-MB-231 breast): > 100 µM
GI50 (MDA-MB-435): 25.4 µM
TGI (MDA-MB-435): 75.3 µM
GI50 (MOLT-4 leukemia): 11.3 µM
TGI (MOLT-4 leukemia): 35.5 µM
GI50 (NCI-H226 lung): 30.4 µM
TGI (NCI-H226 lung): > 100 µM
GI50 (NCI-H23 lung): 47 µM
TGI (NCI-H23 lung): > 100 µM
GI50 (NCI-H460 lung): 27.4 µM
TGI (NCI-H460 lung): > 100 µM
GI50 (NCI-H522 lung): 21.6 µM
TGI (NCI-H522 lung): > 100 µM
GI50 (NCI/ADR-RES ovarian): 31 µM
TGI (NCI/ADR-RES ovarian): 96.5 µM
GI50 (OVCAR-3 ovarian): 26.2 µM
TGI (OVCAR-3 ovarian): > 100 µM
GI50 (OVCAR-4 ovarian): 74.1 µM
TGI (OVCAR-4 ovarian): > 100 µM
GI50 (OVCAR-5 ovarian): 45.7 µM
TGI (OVCAR-5 ovarian): > 100 µM
GI50 (OVCAR-8 ovarian): 26.6 µM
TGI (OVCAR-8 ovarian): 75.4 µM
GI50 (PC-3 prostate): 44.7 µM
TGI (PC-3 prostate): > 100 µM
GI50 (RPMI-8226 leukemia): 16.2 µM
TGI (RPMI-8226 leukemia): 47.2 µM
GI50 (RXF 393 renal): 20.4 µM
TGI (RXF 393 renal): 65.6 µM
GI50 (SF-268 CNS): 32.9 µM
TGI (SF-268 CNS): > 100 µM
GI50 (SF-295 CNS): 83.3 µM
TGI (SF-295 CNS): > 100 µM
GI50 (SF-539 CNS): 72.9 µM
TGI (SF-539 CNS): > 100 µM
GI50 (SK-MEL-2 melanoma): 24 µM
TGI (SK-MEL-2 melanoma): 69.9 µM
GI50 (SK-MEL-5 melanoma): 20.9 µM
TGI (SK-MEL-5 melanoma): 45.2 µM
GI50 (SN12C renal): 20.3 µM
TGI (SN12C renal): 50.9 µM
GI50 (SR leukemia): 9.19 µM
TGI (SR leukemia): 28.7 µM
GI50 (SW-620 colon): 24.1 µM
TGI (SW-620 colon): 67 µM
GI50 (TK-10 renal): 77.9 µM
TGI (TK-10 renal): > 100 µM
GI50 (U251 CNS): 27.9 µM
TGI (U251 CNS): > 100 µM
GI50 (UACC-257 melanoma): 39.5 µM
TGI (UACC-257 melanoma): > 100 µM
GI50 (UACC-62 melanoma): 21.6 µM
TGI (UACC-62 melanoma): 79.4 µM
GI50 (UO-31 renal): 36.6 µM
TGI (UO-31 renal): > 100 µM
